{
  "source": "patent US9957498B2",
  "about": "“Photoremovable protecting groups and uses thereof” (Iowa State University Research Foundation, Inc., priority 2015, dated 2018)",
  "key": {"[1]": {"test_system": "HeLa cells", "test": "Trypan blue exclusion cytotoxicity assay, HeLa", "format": "cell-based, human", "conditions": "20 μM, one hour incubation, ± standard deviation from two measurements", "description": "(§1) Live cell experiments were performed with HeLa (human), GM07373 (bovine) or S2 (Drosophila) cells. HeLa and GM07373 cells were cultured in DMEM medium supplemented with 10% fetal bovine serum, […] (Fisher Scientific, Pittsburgh, Pa.) in a 37° C. water jacketed CO2 incubator (Thermo Scientific, Waltham, Mass.). HeLa and GM07373 cells were sub-cultured using 0.25% (w/v) trypsin-EDTA (Life Technology, Carlsbad, Calif.) solution every two days. Cells were sub-cultured onto custom-made glass bottom culture dishes two days before the microscopy experiment. On the day of the microscopy experiment, the growth media was replaced with 20 μM compound 12b in serum-free DMEM for one hour. Cells were rinsed with the imaging medium (pH=7.2, 155 mM NaCl, 5 mM KCl, 2 mM CaCl2, 1 mM MgCl2, 2 mM NaH2PO4, 10 mM HEPES and 10 mM Glucose) prior to collecting microscopy images. […]\n(§2) HeLa, GM07373 or S2 cells were incubated with 20 μM of the compound 12b for an hour. Cytotoxicity of the compound was measured using trypan blue exclusion assays. […] The number of viable cells that excluded the dye was counted using a hemacytometer (Hausser Bright-Line, Hausser scientific, Horsham, Pa.) and an optical microscope."}, "[2]": {"test_system": "S2 cells", "test": "Trypan blue exclusion cytotoxicity assay, S2", "format": "cell-based, Drosophila", "conditions": "20 μM, one hour incubation, ± standard deviation from two measurements", "description": "as §1, §2"}, "[3]": {"test_system": "GM07373 cells", "test": "Trypan blue exclusion cytotoxicity assay, GM07373", "format": "cell-based, bovine", "conditions": "20 μM, one hour incubation, ± standard deviation from two measurements", "description": "as §1, §2"}, "[4]": {"test": "UV-Vis spectroscopy: absorption maximum and extinction coefficient", "format": "physicochemical", "description": "(§3) The observed substrate release rate as a function of photolysis time is quantified by the quantum efficiency parameter (ϵΦ), which is the product of the extinction coefficient at the irradiation wavelength (ϵ) and the quantum yield (Φ). Extinction coefficients for compounds 1-6 were determined by UV-Vis spectroscopy (see Table 1)."}, "[5]": {"test": "Fluorescence emission of compound solutions", "format": "physicochemical", "text": "FIG. 2 is a plot of normalized fluorescence as a function of wavelength for compounds 1-6 described herein.\nSee, e.g., Petr Klán et al., Chem. Rev. 113: 119-191 (2013), which is incorporated by reference as if fully set forth herein. Even thought the quantum yields for compounds 1-4 are lower than those for some o-nitrobenzyl photocaged structures, this lower quantum yield is compensated by the much higher extinction coefficients of the BODIPY chromophores compared to the o-nitrobenzyl chromophore, leading to reasonable quantum efficiencies. […] While not being bound by any particular theory, it is plausible that the higher quantum yield of compound 6 occurs because the iodine atoms promote intersystem crossing to a triplet state, which are usually longer lived than […]. Given that the triplet state of the corresponding carbocation is the computed ground state by ˜5 kcal/mol, it is certainly energetically reasonable that heterolysis could occur in the triplet excited state leading to the triplet “carbocation,” similar to the phenacyl photocage derivatives described by Givens et al., Can. J. Chem. 89: 364-384 (2011), which is incorporated by reference as if fully set forth herein."}, "[6]": {"test": "Quantum yield of photorelease of acetic acid (ferrioxalate actinometry, 532 nm laser, LC-UV)", "format": "physicochemical", "conditions": "for Φ (quantum yield of acetic acid release): MeOH, 532 nm ND:YAG laser, LC-UV", "description": "as §3\nTo compute the quantum yields of photorelease (Φ), the flux of a 532 nm laser excitation beam (ND:YAG, 1st harmonic) was determined using potassium ferrioxalate actinometry. Release of acetic acid as a function of laser irradiation time in methanol was followed by quantitative LC/UV methods known in the art. Each quantum yield reported is the average of 3 separate runs. […] Additionally, repeating the quantum yield measurement for compound 2 on a different day with a different laser power setting (in triplicate) gave an identical value for the quantum yield, indicating reproducibility.\nAll quantum yields were carried out using a liquid-phase potassium ferrioxalate actinometer. The actinometer was prepared by mixing three volumes of 1.5 M K2C2O4 solution with one volume of 1.5 M FeCl3 solution in water, and stirring in complete darkness. The precipitated K3Fe(C2O4)3.3H2O was then recrystallized three times from hot water and dried in a current of warm air. To prepare 1 L of 0.15M K3Fe(C2O4)3.3H2O solution, 73.68 g of the precipitate was dissolved in 800 mL water; 100 mL 1.0 N sulfuric acid was added and filled to the mark with water, again in complete darkness. For all quantitative work the preparation and manipulation of the ferrioxalate solutions must be carried out in a darkroom, using a red light. The light intensity in a photochemical reaction is determined by irradiating ferrioxalate solution and monitoring the subsequent change in absorbance at 510 nm. Irradiation was conducted using 532 nm excitation from a ND:YAG laser source (1st harmonic). Autopipettes were used to ensure all volumes were accurately measured.\nFor each actinometric measurement a methacrylate cuvette was filled with 3 mL of 0.15 M ferrioxalate solution. The cell was placed in the sample holder, stirred and irradiated for a set period of time (0, 0.25, 0.50, 0.75, 1, 2, 3 minutes). After the allocated irradiation time the solution was transferred into a 25 mL volumetric flask, to which was added in sequence 6 mL of a developer solution (0.05 mol % phenanthroline/0.75 M acetate/0.2 M sulfuric acid), 5 mL 1 M sodium fluoride solution in water. The sample was diluted to 25 mL with water, mixed and allowed to incubate for 10 minutes. After the incubation period was complete, 3 mL of sample was transferred into 1 cm methacrylate cuvette and the absorbance (at 510 nm) read using a spectrophotometer.\nUsing iron sulfate standard solutions between 1.6×10^−5 M to 9.6×10^−5 M, a standard curve based on absorbance of the ferrioxalate/phenanthroline complex at 510 nm was compiled and the irradiated samples absorbances were compared to yield the concentration iron (II) cleaved via photolysis within the timescale of experiment.\nThe flux of the laser was calculated the following equations:\n[formula] where I is the flux (Einstein/L/s), Δn is the Fe^2+ photogenerated (mole), φ is the quantum yield at 532 nm, V1 is the irradiated volume (mL), and t=irradiation time (seconds);\n[formula] where V2 is the volume taken from the irradiated sample (mL), V3 is the volume after dilution for concentration determination (mL), and CT is the concentration of Fe^2+ after dilution (M); and\n[formula] where abs is the absorbance at 510 nm, ϵ is the molar absorptivity (M^−1 cm^−1) and l is the path length.\nDue to the low absorbance of the potassium ferrioxalate solution at 532 nm, a correction was made to account for an absorbance less than 2 (multiplied the flux by 0.0967).\nFor each compound, a solution of 1000 ppm was prepared using 1 mg of sample and dissolving in 1 mL methanol. […]"}},
  "data": [
    {"compound": "3,5-Bis(4-(1,4,7,10-tetraoxaundecyl)styryl-1,7-dimethyl-8-(4-nitrobenzoato)pyrromethene fluoroborate [Compound 12b]", "values": [
      {"measurement": "% of Viable cells", "setting": "[1]", "value": "92 ± 5", "unit": "%"},
      {"measurement": "% of Viable cells", "setting": "[2]", "value": "93 ± 2", "unit": "%"},
      {"measurement": "% of Viable cells", "setting": "[3]", "value": "92 ± 5", "unit": "%"}
    ]},
    {"compound": "8-Acetoxymethyl-1,3,5,7-tetramethyl pyrromethene fluoroborate [Compound 2]", "values": [
      {"measurement": "λmax", "setting": "[4]; Table 1", "value": 515, "unit": "nm"},
      {"measurement": "ε", "setting": "[4]; Table 1, extinction coefficient by UV-Vis spectroscopy", "value": 71000, "unit": "M⁻¹ cm⁻¹"},
      {"measurement": "ε", "setting": "[4]; Table 2", "value": 71000, "unit": "M⁻¹ cm⁻¹"},
      {"measurement": "λmax", "setting": "[4]; Table 2", "value": 515, "unit": "nm"},
      {"measurement": "λem", "setting": "[5]; Table 1", "value": 526, "unit": "nm"},
      {"measurement": "λem", "setting": "[5]; Table 2", "value": 526, "unit": "nm"},
      {"measurement": "Φ (quantum yield of photorelease)", "setting": "[6]; Table 1, acetic acid release, 532 nm laser, methanol, average of 3 runs", "value": "9.9 ×10^−4"},
      {"measurement": "εΦ (quantum efficiency)", "setting": "[6]; Table 1, product of extinction coefficient and quantum yield", "value": 70, "unit": "M⁻¹ cm⁻¹"},
      {"measurement": "εΦ (quantum efficiency)", "setting": "[6]; Table 2", "value": 70, "unit": "M⁻¹ cm⁻¹"},
      {"measurement": "Φ (quantum yield of acetic acid release)", "setting": "[6]; Table 2, average of 3 runs", "value": "9.9 ×10^−4"}
    ]},
    {"compound": "COc1ccc(/C=C/c2cc(C)c3n2[B-](F)(F)[N+]2=C(C)C=C(C)C2=C3COC(C)=O)cc1", "note": "[Compound 7, 8-Acetoxymethyl-3-(4-methoxy)styryl-1,5,7-trimethyl pyrromethene fluoroborate]", "values": [
      {"measurement": "ε", "setting": "[4]; Table 2", "value": 61000, "unit": "M⁻¹ cm⁻¹"},
      {"measurement": "λmax", "setting": "[4]; Table 2", "value": 586, "unit": "nm"},
      {"measurement": "λem", "setting": "[5]; Table 2", "value": 607, "unit": "nm"},
      {"measurement": "εΦ (quantum efficiency)", "setting": "[6]; Table 2", "value": 6.0, "unit": "M⁻¹ cm⁻¹"},
      {"measurement": "Φ (quantum yield of acetic acid release)", "setting": "[6]; Table 2, average of 3 runs", "value": "9.8 ×10^−4"}
    ]},
    {"compound": "CC(=O)OCC1=C2C(C)=CC(C)=[N+]2[B-](F)(F)n2c(C=Cc3ccc(N(C)C)cc3)cc(C)c21", "note": "[Compound 8, 8-Acetoxymethyl-3-(4-dimethylamino)styryl-1,5,7-trimethyl pyrromethene fluoroborate]", "values": [
      {"measurement": "ε", "setting": "[4]; Table 2", "value": 60000, "unit": "M⁻¹ cm⁻¹"},
      {"measurement": "λmax", "setting": "[4]; Table 2", "value": 633, "unit": "nm"},
      {"measurement": "λem", "setting": "[5]; Table 2", "value": 650, "unit": "nm"},
      {"measurement": "εΦ (quantum efficiency)", "setting": "[6]; Table 2", "value": 4.1, "unit": "M⁻¹ cm⁻¹"},
      {"measurement": "Φ (quantum yield of acetic acid release)", "setting": "[6]; Table 2, average of 3 runs", "value": "6.9 ×10^−4"}
    ]},
    {"compound": "CC(=O)OCC1=C2C(C)=CC(C=Cc3ccccc3)=[N+]2[B-](F)(F)n2c(C=Cc3ccccc3)cc(C)c21", "note": "[Compound 9, 8-Acetoxymethyl-3,5-bisstyryl-1,7-dimethyl pyrromethene fluoroborate]", "values": [
      {"measurement": "ε", "setting": "[4]; Table 2", "value": 65000, "unit": "M⁻¹ cm⁻¹"},
      {"measurement": "λmax", "setting": "[4]; Table 2", "value": 640, "unit": "nm"},
      {"measurement": "λem", "setting": "[5]; Table 2", "value": 656, "unit": "nm"},
      {"measurement": "εΦ (quantum efficiency)", "setting": "[6]; Table 2", "value": 2.9, "unit": "M⁻¹ cm⁻¹"},
      {"measurement": "Φ (quantum yield of acetic acid release)", "setting": "[6]; Table 2, average of 3 runs", "value": "4.5 ×10^−4"}
    ]},
    {"compound": "COc1ccc(/C=C/C2=[N+]3C(=C(COC(C)=O)c4c(C)cc(/C=C/c5ccc(OC)cc5)n4[B-]3(F)F)C(C)=C2)cc1", "note": "[Compound 10a, 8-Acetoxymethyl-3,5-bis(4-methoxy)styryl-1,7-dimethyl pyrromethene fluoroborate]", "values": [
      {"measurement": "ε", "setting": "[4]; Table 2", "value": 65000, "unit": "M⁻¹ cm⁻¹"},
      {"measurement": "λmax", "setting": "[4]; Table 2", "value": 661, "unit": "nm"},
      {"measurement": "λem", "setting": "[5]; Table 2", "value": 684, "unit": "nm"},
      {"measurement": "εΦ (quantum efficiency)", "setting": "[6]; Table 2", "value": 2.7, "unit": "M⁻¹ cm⁻¹"},
      {"measurement": "Φ (quantum yield of acetic acid release)", "setting": "[6]; Table 2, average of 3 runs", "value": "4.1 ×10^−4"}
    ]},
    {"compound": "COCCOCCOCCOc1ccc(C=CC2=[N+]3C(=C(CO)c4c(C)cc(C=Cc5ccc(OCCOCCOCCOC)cc5)n4[B-]3(F)F)C(C)=C2)cc1", "note": "[Compound 11b, 3,5-Bis(4-(1,4,7,10-tetraoxaundecyl)styryl-1,7-dimethyl-8-hydroxymethylpyrromethene fluoroborate]", "values": [
      {"measurement": "ε", "setting": "[4]; Table 2", "value": 120000, "unit": "M⁻¹ cm⁻¹"},
      {"measurement": "λmax", "setting": "[4]; Table 2", "value": 667, "unit": "nm"}
    ]}
  ]
}
